One may read the pIC50 as the IC50 on a negative log10 scale, so that one unit is a factor of ten. A high value points to a low IC50.

Molecules are shown by their SMILES. pIC50: −log10 of the molar value.

Drawing on BindingDB's records for doi:10.1021/jm049496b (University of Colorado, 2004), this text covers IC50 for two compounds.

In assay [1] the target is T1, 7-dehydrocholesterol reductase (Homo sapiens, UniProt Q9UBM7).
T1 sequence (Q9UBM7 whole entry): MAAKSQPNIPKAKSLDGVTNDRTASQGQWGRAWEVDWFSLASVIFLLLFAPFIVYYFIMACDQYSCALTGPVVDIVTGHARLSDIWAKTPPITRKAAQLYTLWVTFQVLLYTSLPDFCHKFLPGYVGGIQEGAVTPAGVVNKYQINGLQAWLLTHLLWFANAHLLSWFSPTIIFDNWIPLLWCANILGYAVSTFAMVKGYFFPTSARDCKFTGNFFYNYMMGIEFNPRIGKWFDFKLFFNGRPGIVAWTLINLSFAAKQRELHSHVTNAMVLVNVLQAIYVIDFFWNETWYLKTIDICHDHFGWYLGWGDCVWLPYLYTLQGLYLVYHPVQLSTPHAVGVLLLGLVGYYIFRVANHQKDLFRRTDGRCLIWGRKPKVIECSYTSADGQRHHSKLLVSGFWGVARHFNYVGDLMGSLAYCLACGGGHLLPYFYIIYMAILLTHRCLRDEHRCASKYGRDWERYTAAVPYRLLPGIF
Description: Growth inhibition of MCF7 cells expressing ER and antiestrogen binding sites.

The target of assay [2] is T1, 7-dehydrocholesterol reductase. Description: Growth inhibition of MDA-MB-231 cells containing antiestrogen binding sites.
The target is the same in assay [3]. Description: Growth inhibition of multidrug resistant MCF7/Adr cells containing antiestrogen binding sites.
Assay [4] has the same target. Nature of the assay: Growth inhibition of MDA-MB-435 cells containing antiestrogen binding sites.

Turning to `COc1cccc2c1C(=O)c1c(O)c3c(c(O)c1C2=O)C[C@@](O)(C(=O)CO)C[C@@H]3O[C@H]1C[C@H](NCNC(=O)c2ccccc2O)[C@H](O)[C@H](C)O1`, the pIC50 in assay [1] is 7.15; in assay [2] it was 7.10; in assay [3], 5.70; in assay [4], 7.30.
`CC/C(=C(/c1ccc(O)cc1)c1ccc(OCCN(C)CCOCCOCCO/N=C/c2ccc(O)c(C(=O)NCN[C@H]3C[C@H](O[C@H]4C[C@](O)(C(=O)CO)Cc5c(O)c6c(c(O)c54)C(=O)c4c(OC)cccc4C6=O)O[C@@H](C)[C@H]3O)c2)cc1)c1ccccc1`: the pIC50 was 7.52 in assay [1], 7.52 in assay [2], 7.22 in assay [3] and 7.40 in assay [4].
